Source: US12336991B2, “Factor XIIA inhibitors” (UNIVERSITY OF LEEDS, priority 2018, dated 2025)

Experiments:
Format in all cases: biochemical
thrombin = molecular target: T1, thrombin (Homo sapiens, UniProt P00734); experiment: Determination of selectivity: thrombin inhibition, chromogenic substrate GPR assay; settings: fold selectivity for FXIIa over thrombin
T1 construct: FXa (5 nM) and thrombin (5 nM)
Protocol: (§1) The activities of the compounds of the invention have been determined in vitro using the following assays protocols for the screening of activity of FXIIa and other proteases. Each of these assays were performed in a purified system employing the use of chromogenic assays in microplate plate wells. Chromogenic peptide substrates mimicking natural protein substrates are attached via an amide bond to a chromogenic group. Paranitroaniline (pNA) is released from the peptide following catalyses by the proteolytic enzyme; the absorbance increases and can be monitored at 405 nm.
(§2) All compounds were dissolved in 100% (v/v) DMSO to a stock concentration of 10 mM, the highest concentration of compound used in each assay is 500 μM. The final concentrations of DMSO were 5% (v/v) in 50 mM Tris 137 mM NaC pH 7.4. Where no test compound was added a final concentration of 5% DMSO was employed.
(§3) Determination of Selectivity
(§4) To determine selectivity of test compounds, these test compounds were assayed for inhibitory activity against other serine proteases including FXa and thrombin. Essentially compounds at increasing concentrations were incubated with each enzyme: FXa (5 nM) and thrombin (5 nM), for 10 mins at 37° C. followed the appropriate chromogenic substrate, S2765 ([…]), and GPR ([…]) respectively in 50 mM Tris, 137 mM NaCl, pH 7.4. Chromogenic substrates S2765 was from Chromogenix, and GPR from Bachem. Kinetic readings at 405 nm were monitored every 12 secs for a total duration of 3 hours at 37° C. Gradients of initial rates were determined and employed to calculate IC50 values. Values of IC50 were converted to Ki values based on the formula: Ki=IC50/(1+[Substrate]/Km)
(§5) Where [Substrate] denotes the concentration of substrate used in the assay and Km is the determined value of each enzyme with its own substrate.
(§6) The fold selectivity for FXIIa over thrombin for the compounds of the invention has been categorised based on the fold selectivity values, the categories being “+”, “++” and “+++”. The category “+” refers to fold selectivity values less than 10. The category “++” refers to a fold selectivity value of 10 to 100. The category “+++” refers to fold selectivity values greater than 100.

FXa = FXa (Homo sapiens, UniProt P00742); experiment: Determination of selectivity: FXa inhibition, chromogenic substrate S2765 assay; settings: fold selectivity for FXIIa over FXa
Chain of FXa (P00742 235-488 limits assumed): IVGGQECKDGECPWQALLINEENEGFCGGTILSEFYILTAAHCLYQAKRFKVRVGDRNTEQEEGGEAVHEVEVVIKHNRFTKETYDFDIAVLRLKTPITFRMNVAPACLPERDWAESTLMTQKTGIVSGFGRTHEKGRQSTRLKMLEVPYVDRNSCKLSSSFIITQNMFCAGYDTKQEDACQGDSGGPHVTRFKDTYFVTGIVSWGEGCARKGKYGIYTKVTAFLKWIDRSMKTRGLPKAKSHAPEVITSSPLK
Chain of FXa (P00742 41-179 partner limits assumed): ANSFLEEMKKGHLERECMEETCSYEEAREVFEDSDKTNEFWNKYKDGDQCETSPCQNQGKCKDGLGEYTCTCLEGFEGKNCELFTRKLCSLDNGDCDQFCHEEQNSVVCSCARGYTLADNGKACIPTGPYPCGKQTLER
Protocol: as §1, §2, §3, §4, §5, §6
The fold selectivity for FXIIa over FXa for the compounds of the invention has been categorised based on the fold selectivity values, the categories being “o”, “oo” and “ooo”. The category “o” refers to fold selectivity values less than 10. The category “oo” refers to a fold selectivity value of 10 to 100. The category “ooo” refers to fold selectivity values greater than 100.

FXIIa = molecular target: T2, FXIIa (Homo sapiens, UniProt P00748); experiment: Determination of Factor XIIa inhibition, chromogenic substrate S-2302 assay; settings: human FXIIa alpha
T2 sequence (P00748 373-615 limits assumed): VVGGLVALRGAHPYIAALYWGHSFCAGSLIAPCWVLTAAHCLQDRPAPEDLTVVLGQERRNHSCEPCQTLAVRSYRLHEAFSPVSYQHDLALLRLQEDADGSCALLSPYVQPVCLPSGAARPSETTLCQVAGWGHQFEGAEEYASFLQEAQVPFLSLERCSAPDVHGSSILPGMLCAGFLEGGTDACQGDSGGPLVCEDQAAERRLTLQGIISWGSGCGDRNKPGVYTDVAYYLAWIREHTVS
T2 sequence (P00748 20-372 partner limits assumed): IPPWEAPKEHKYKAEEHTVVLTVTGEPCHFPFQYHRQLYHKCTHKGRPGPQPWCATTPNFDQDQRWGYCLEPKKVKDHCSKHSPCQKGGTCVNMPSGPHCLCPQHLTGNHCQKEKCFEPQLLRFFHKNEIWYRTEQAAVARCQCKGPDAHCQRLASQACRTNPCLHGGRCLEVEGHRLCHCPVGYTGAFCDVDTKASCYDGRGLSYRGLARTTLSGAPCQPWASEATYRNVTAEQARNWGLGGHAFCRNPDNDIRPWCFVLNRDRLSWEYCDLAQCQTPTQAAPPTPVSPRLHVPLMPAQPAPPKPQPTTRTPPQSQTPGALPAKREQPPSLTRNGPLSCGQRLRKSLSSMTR
Protocol: as §1, §2
Determination of Factor XIa Inhibition
Factor XIa activity was measured using a chromogenic substrate S-2302 (Chromogenix). Various concentrations of compound were incubated with 10 nM of FXIIa and incubated at 37° C. for 10 minutes in 50 mM Tris, 137 mM NaCl, pH 7.4, prior to the addition of a final concentration of 450 µM S-2302 chromogenic substrate. Kinetic readings at 405 nm were monitored every 12 secs for a total duration of 3 hours at 37° C. Gradients of initial rates were determined and employed to calculate IC50 values. Values of IC50 were converted to Ki values based on the formula: Ki=IC50/(1+[Substrate]/Km).
The activity of the compounds of the invention has been categorised based on the Ki values, the categories being “*”, “**” and “***”. […] The category “**” refers to compounds with a Ki value of 0.2 μM to 2 μM.

| Compound | Thrombin (human)/FXIIa alpha (human) (thrombin) | FXa (human)/FXIIa alpha (human) (FXa) | Ki (FXIIa) |
| --- | --- | --- | --- |
| Nc1cc(CNC(=O)[C@@H]2C[C@@](O)(c3ccc(F)c(F)c3)CN2C(=O)[C@H](N)CCc2ccccc2)ccn1 [Example M05127] | ++ (fold selectivity value of 10 to 100) | ∘∘ | 0.2 to 2 µM |
| Cn1nnc2cc(CNC(=O)[C@@H]3C[C@@](O)(c4ccc(F)c(F)c4)CN3C(=O)[C@H](N)CCc3ccccc3)ccc21 [Example M05128] | ++ (fold selectivity value of 10 to 100) | ∘∘ | > 2 µM |
| NCc1ccc(CNC(=O)[C@@H]2C[C@@H](Cc3cccc(Cl)c3)CN2C(=O)[C@H](N)CCc2ccccc2)cc1 [Example M05130] | ++ (fold selectivity value of 10 to 100) | ∘∘∘ | 0.2 to 2 µM |
| Cn1nnc2cc(CNC(=O)[C@@H]3C[C@H](C(F)(F)F)CN3C(=O)[C@H](N)CCC(=O)N3CCCC3)ccc21 [Example M05139] | +++ (fold selectivity values greater than 100) | ∘∘∘ | > 2 µM |
| CC(=O)N[C@H]1C[C@@H](C(=O)NCc2ccnc(N)c2)N(C(=O)[C@H](N)CCc2ccccc2)C1 [Example M05141] | + (fold selectivity values less than 10) | ∘ | > 2 µM |
| Nc1cc(CNC(=O)[C@@H]2C[C@H](NC(=O)c3ccccc3)CN2C(=O)[C@H](N)CCc2ccccc2)ccn1 [Example M05142] | + (fold selectivity values less than 10) | ∘∘ | 0.2 to 2 µM |
| Cn1nnc2cc(CNC(=O)[C@@H]3C[C@H](N)CN3C(=O)[C@H](N)CCc3ccccc3)ccc21 [Example M05143] | ++ (fold selectivity value of 10 to 100) | ∘∘ | > 2 µM |
| Cn1nnc2cc(CNC(=O)[C@@H]3C[C@@H](c4ccccc4)CN3C(=O)[C@H](N)CCC(=O)N3CCCC3)ccc21 [Example M05155] | +++ (fold selectivity values greater than 100) | ∘∘∘ | 0.2 to 2 µM |
| NCc1ccc(CNC(=O)[C@@H]2C[C@@H](Cc3ccncc3)CN2C(=O)[C@H](N)CCc2ccccc2)cc1 [Example M05156] | + (fold selectivity values less than 10) | ∘∘∘ | 0.2 to 2 µM |
| Cn1nnc2cc(CNC(=O)[C@@H]3C[C@H](c4ccc(F)cc4)CN3C(=O)[C@H](N)CCc3ccccc3)ccc21 [Example M05157] | ++ (fold selectivity value of 10 to 100) | ∘∘ | > 2 µM |
| Cn1nnc2cc(CNC(=O)[C@@H]3C[C@H](NCc4ccccc4)CN3C(=O)[C@H](N)CCc3ccccc3)ccc21 [Example M05158] | ++ (fold selectivity value of 10 to 100) | ∘∘ | > 2 µM |
| Cn1nnc2cc(CNC(=O)[C@@H]3C[C@H](NCc4cccc(C(F)(F)F)c4)CN3C(=O)[C@H](N)CCc3ccccc3)ccc21 [Example M05159] | ++ (fold selectivity value of 10 to 100) | ∘∘ | > 2 µM |
| Cn1nnc2cc(CNC(=O)[C@@H]3C[C@H](NCc4ccc(Cl)cc4)CN3C(=O)[C@H](N)CCc3ccccc3)ccc21 [Example M05160] | ++ (fold selectivity value of 10 to 100) | ∘∘ | > 2 µM |
| CC(=O)N(Cc1ccccc1)[C@H]1C[C@@H](C(=O)NCc2ccc3c(c2)nnn3C)N(C(=O)[C@H](N)CCc2ccccc2)C1 [Example M05161] | ++ (fold selectivity value of 10 to 100) | ∘∘ | > 2 µM |
| CC(=O)N(Cc1cccnc1)[C@H]1C[C@@H](C(=O)NCc2ccc3c(c2)nnn3C)N(C(=O)[C@H](N)CCc2ccccc2)C1 [Example M05162] | ++ (fold selectivity value of 10 to 100) | ∘∘ | > 2 µM |
| Cn1nnc2cc(CNC(=O)[C@@H]3C[C@H](c4ccccc4)CN3C(=O)[C@H](N)CCc3ccccc3)ccc21 [Example M05163] | ++ (fold selectivity value of 10 to 100) | ∘∘ | > 2 µM |
| Cn1nnc2cc(CNC(=O)[C@@H]3C[C@H](c4ccccc4Oc4ccccc4)CN3C(=O)[C@H](N)CCc3ccccc3)ccc21 [Example M05174] | ++ (fold selectivity value of 10 to 100) | ∘∘ | > 2 µM |
| Cn1nnc2cc(CNC(=O)[C@@H]3C[C@@H](NC(=O)c4ccccc4)CN3C(=O)[C@H](N)CCc3ccccc3)ccc21 [Example M05179] | ++ (fold selectivity value of 10 to 100) | ∘∘ | > 2 µM |
| Cn1ncc2cc(CNC(=O)[C@@H]3C[C@@H](c4ccccc4)CN3C(=O)[C@H](N)CCc3ccccc3)ccc21 [Example M05188] | ++ (fold selectivity value of 10 to 100) | ∘∘ | > 2 µM |
| Cn1nnc2cc(CNC(=O)[C@@H]3C[C@@H](Cc4ccncc4)CN3C(=O)[C@H](N)CCC(=O)N3CCCC3)ccc21 [Example M05189] | +++ (fold selectivity values greater than 100) | ∘∘∘ | 0.2 to 2 µM |
| Cn1nnc2cc(CNC(=O)[C@@H]3C[C@@H](Cc4cccc(Cl)c4)CN3C(=O)[C@H](N)CCC(=O)N3CCCC3)ccc21 [Example M05190] | +++ (fold selectivity values greater than 100) | ∘∘∘ | < 0.2 µM |
| Cn1nnc2cc(CNC(=O)[C@@H]3C[C@H](NC(=O)CCc4ccccc4)CN3C(=O)[C@H](N)CCc3ccccc3)ccc21 [Example M05195] | ++ (fold selectivity value of 10 to 100) | ∘∘ | > 2 µM |
| Cn1nnc2cc(CNC(=O)[C@@H]3C[C@H](NC(=O)CCCc4ccccc4)CN3C(=O)[C@H](N)CCc3ccccc3)ccc21 [Example M05196] | ++ (fold selectivity value of 10 to 100) | ∘∘ | > 2 µM |
| Cn1nnc2cc(CNC(=O)[C@@H]3C[C@H](N4CCN(Cc5ccccc5)CC4)CN3C(=O)[C@H](N)CCc3ccccc3)ccc21 [Example M05200, (2S,4S)-1-((R)-2-Amino-4-phenyl-butyryl)-4-(4-benzyl-piperazin-1-yl)-pyrrolidine-2-carboxylic acid (1-methyl-1H-benzotriazol-5-ylmethyl)-amide] | ++ (fold selectivity value of 10 to 100) | ∘∘ | > 2 µM |
